For experiment [1], the target named is Nicotinic Acetylcholine Receptor α4β2 (nAchRa4/b2) (Homo sapiens (Human), UniProt P17787+P43681). The experiment can be described thus: Nicotinic acetylcholine receptor α4β2 ion channel blocking assay. Format: cell-based. The procedure: Cell lines were expanded from freezer stocks according to standard procedures. Cells were seeded in a total volume of 20 μL into black-walled, clear-bottom, Poly-D-lysine coated 384-well microplates and incubated at 37° C. for the appropriate time prior to testing.
Assays were performed in 1×Dye Loading Buffer consisting of 1×Dye, and 2.5 mM freshly-prepared Probenecid when applicable.
Test compounds were assayed at 10 concentrations with the highest concentration either 30 or 10 μM and subsequent concentrations using a 0.33 dilution factor.
Prior to testing, cells were loaded with dye then incubated for 30-60 minutes at 37° C. For antagonist determination, cells were pre-incubated with sample. Dihydro-β-erythroidine was used as a positive control. Intermediate dilution of sample stocks was performed to generate 2-5×sample in assay buffer.
After dye loading, cells were moved from the incubator and 10-25 μL 2-5×sample was added to cells in the presence of EC80 agonist when appropriate. Cells were incubated for 30 minutes at room temperature in the dark to equilibrate plate temperature. Vehicle concentration was 1%.
Compound activity was measured on a FLIPRTetra(MDS) and analyzed using CBIS data analysis suite (ChemInnovation, CA). Percentage inhibition was calculated using the following formula: % Inhibition=100%×(1−(mean RLU of test sample−mean RLU of vehicle control)/(mean RLU of EC80 control−mean RLU of vehicle control)).

A further experiment concerns the target MAO-A (Homo sapiens (Human), UniProt P21397). The experiment can be described thus: MAO-A inhibition assay (kynuramine). It counts as biochemical.
Another experiment addresses 5-HT2A receptors (Homo sapiens (Human), UniProt P28223). As to the kind of experiment: 5-HT2A agonist and antagonist calcium assay (Calcium NWPLUS, FLIPR). It counts as cell-based. On the procedure:
The DiscoveRx Calcium NWPLUS Assay was used for detection of changes in intracellular calcium as signalled by an increase of dye fluorescence in cells expressing 5-HT2A receptors. Signal was measured on a fluorescent plate reader equipped with fluidic handling capable of detecting rapid changes in fluorescence upon compound stimulation.
To conduct the assay, cell lines were expanded from freezer stocks according to standard procedures. Cells (10,000 cells/well) were seeded in a total volume of 50 μL (200 cells/μL) into black-walled, clear-bottom, Poly-D-lysine coated 384-well microplates and incubated at 37-C for the appropriate time prior to testing. DMSO concentration for all readouts was ≤0.2%.
Assays were performed in 1×DyeLoading Buffer consisting of 1×Dye (DiscoverX, Calcium No WashPLUS kit, Catalog No. 90-0091), 1×Additive A and 2.5 mM Probenecid in HBSS/20 mM Hepes. Probenecid was prepared fresh. Cells were loaded with dye prior to testing. Media was aspirated from cells and replaced with 25 μL Dye Loading Buffer. Test compounds were assayed at 10 concentrations with the highest concentration either 30 or 10 μM and subsequent concentrations using a 0.33 dilution factor. Cells with testing sample were incubated for 45 minutes at 37° C. and then 20 minutes at room temperature. After dye loading, cells were removed from the incubator and 25 μL of 2×compound in HBSS/20 mM Hepes was added using a FLIPR Tetra (MDS). […]
Compound agonist activity was measured on a FLIPR Tetra. Calcium mobilization was monitored for 2 minutes with a 5 second baseline read. FLIPR read-Area under the curve was calculated for the two minute read. Compound activity was analyzed using CBIS data analysis suite (ChemInnovation, CA). Percentage activity was calculated as 100%×(mean RFU of test sample−mean RFU of vehicle control)/(mean MAX RFU control ligand −mean RFU of vehicle control). For antagonist mode assays, percentage inhibition was calculated as 100%×(1−(mean RFU of test sample−mean RFU of vehicle control)/(mean RFU of EC80 control−mean RFU of vehicle control)).

The target in the next experiment is adrenergic β2 receptor (Homo sapiens (Human), UniProt P07550). As to the kind of experiment: Adrenergic β2 receptor cAMP secondary messenger antagonist assay. It counts as cell-based. The source says: This assay used a panel of CHO-K1 cell lines stably expressing non-tagged GPCRs that endogenously signal through cAMP. Hit Hunter® cAMP assays monitored the activation of a GPCR via Gi and Gs secondary messenger signaling in a homogenous, non-imaging assay format using DiscoverX Enzyme Fragment Complementation (EFC) with β-galactosidase as the functional endpoint.
The enzyme was split into two complementary portions: Enzyme Acceptor (EA) and Enzyme Donor (ED). In the assay, exogenously introduced ED fused to cAMP (ED-cAMP) competed with endogenously generated cAMP for binding to an anti-cAMP-specific antibody. […] Active enzyme could then convert a chemiluminescent substrate, generating an output signal detectable on a standard microplate reader.
Cell lines were expanded from freezer stocks according to standard procedures. Cells were seeded in a total volume of 20 μL into white walled, 384-well microplates and incubated at 37° C. for the appropriate time prior to testing. cAMP modulation was determined using the DiscoverX HitHunter cAMP XS+ assay. […]
Compound activity was analyzed using CBIS data analysis suite (ChemInnovation, CA). For Gs antagonist mode assays, percentage inhibition was calculated as 100%×(1−(mean RLU of test sample−mean RLU of vehicle control)/(mean RLU of EC80 control−mean RLU of vehicle control)).

Another experiment has as its target 5-HT2B (Homo sapiens (Human), UniProt P41595). As to the kind of experiment: 5-HT2B agonist and antagonist calcium assay (Calcium NWPLUS, FLIPR). Format: cell-based.
Experiment [2] has as its target serotonin (5-HT) transporter (SERT) (Rattus norvegicus (Rat), UniProt P31652). The experiment can be described thus: Rat synaptosome SERT [3H]5-HT release assay. Conditions: [3H]5-HT release via SERT EC50 (nM), 5 nM [3H]5-HT.

Data on one molecule can be found in US11767305B2, “Advantageous benzofuran compositions for mental disorders or enhancement” (Tactogen Inc, priority 2020, dated 2023).

5-HT2B, sequence (P41595 whole entry, looked up, species assumed): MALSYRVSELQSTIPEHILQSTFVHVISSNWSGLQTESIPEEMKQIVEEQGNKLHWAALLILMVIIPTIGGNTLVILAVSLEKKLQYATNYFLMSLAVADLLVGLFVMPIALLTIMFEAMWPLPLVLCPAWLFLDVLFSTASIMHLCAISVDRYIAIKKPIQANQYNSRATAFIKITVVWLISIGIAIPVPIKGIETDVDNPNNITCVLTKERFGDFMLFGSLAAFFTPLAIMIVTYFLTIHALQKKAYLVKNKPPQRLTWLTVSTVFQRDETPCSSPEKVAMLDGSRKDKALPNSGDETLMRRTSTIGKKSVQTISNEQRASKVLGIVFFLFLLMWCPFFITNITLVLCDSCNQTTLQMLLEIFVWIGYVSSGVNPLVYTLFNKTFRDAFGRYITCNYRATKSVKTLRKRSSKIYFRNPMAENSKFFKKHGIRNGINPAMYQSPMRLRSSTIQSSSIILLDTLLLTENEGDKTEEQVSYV
MAO-A, sequence (P21397 whole entry, looked up, species assumed): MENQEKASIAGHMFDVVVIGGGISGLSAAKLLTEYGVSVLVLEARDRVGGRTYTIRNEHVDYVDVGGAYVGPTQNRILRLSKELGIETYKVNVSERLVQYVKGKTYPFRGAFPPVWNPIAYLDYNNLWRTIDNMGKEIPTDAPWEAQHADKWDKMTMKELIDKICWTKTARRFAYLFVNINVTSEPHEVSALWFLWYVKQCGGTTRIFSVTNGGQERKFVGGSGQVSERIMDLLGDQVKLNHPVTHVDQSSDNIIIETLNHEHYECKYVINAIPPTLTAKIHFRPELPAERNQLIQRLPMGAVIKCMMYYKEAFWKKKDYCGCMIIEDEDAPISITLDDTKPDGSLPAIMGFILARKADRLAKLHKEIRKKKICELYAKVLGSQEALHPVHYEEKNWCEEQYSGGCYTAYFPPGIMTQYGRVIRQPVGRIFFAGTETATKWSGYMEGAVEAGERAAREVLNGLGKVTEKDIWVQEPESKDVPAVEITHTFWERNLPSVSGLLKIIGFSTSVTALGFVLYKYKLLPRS
Nicotinic Acetylcholine Receptor α4β2 (nAchRa4/b2), sequence (P43681 29-627 limits assumed): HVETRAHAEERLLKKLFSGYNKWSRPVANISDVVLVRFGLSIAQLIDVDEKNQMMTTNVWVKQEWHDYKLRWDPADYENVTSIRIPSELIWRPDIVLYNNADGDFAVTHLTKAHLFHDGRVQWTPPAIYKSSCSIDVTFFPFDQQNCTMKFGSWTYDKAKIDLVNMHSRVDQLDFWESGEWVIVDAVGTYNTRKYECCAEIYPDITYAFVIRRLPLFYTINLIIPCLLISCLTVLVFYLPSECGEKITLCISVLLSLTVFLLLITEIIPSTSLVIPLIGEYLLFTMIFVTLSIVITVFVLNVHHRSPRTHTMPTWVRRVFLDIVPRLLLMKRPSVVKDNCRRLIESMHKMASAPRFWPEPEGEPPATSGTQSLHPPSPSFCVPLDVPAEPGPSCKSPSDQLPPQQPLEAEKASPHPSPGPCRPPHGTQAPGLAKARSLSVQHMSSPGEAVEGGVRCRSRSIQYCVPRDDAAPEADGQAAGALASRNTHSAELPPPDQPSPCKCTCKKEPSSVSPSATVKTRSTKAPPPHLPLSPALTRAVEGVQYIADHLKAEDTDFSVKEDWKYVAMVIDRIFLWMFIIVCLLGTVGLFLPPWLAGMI
Nicotinic Acetylcholine Receptor α4β2 (nAchRa4/b2), sequence (P17787 26-502 limits assumed): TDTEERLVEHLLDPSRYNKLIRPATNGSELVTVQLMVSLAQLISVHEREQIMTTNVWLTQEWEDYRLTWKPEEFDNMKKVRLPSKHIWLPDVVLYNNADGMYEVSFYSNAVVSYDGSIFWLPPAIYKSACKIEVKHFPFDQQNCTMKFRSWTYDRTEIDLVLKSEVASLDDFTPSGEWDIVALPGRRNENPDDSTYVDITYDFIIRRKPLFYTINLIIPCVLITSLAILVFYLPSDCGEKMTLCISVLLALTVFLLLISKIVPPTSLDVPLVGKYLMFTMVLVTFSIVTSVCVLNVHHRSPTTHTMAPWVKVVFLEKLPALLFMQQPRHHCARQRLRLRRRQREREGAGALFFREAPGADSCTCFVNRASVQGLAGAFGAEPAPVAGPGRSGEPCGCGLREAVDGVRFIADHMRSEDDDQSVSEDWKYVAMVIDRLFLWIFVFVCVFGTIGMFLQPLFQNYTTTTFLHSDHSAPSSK
adrenergic β2 receptor, sequence (P07550 whole entry, looked up, the tested form may be a part): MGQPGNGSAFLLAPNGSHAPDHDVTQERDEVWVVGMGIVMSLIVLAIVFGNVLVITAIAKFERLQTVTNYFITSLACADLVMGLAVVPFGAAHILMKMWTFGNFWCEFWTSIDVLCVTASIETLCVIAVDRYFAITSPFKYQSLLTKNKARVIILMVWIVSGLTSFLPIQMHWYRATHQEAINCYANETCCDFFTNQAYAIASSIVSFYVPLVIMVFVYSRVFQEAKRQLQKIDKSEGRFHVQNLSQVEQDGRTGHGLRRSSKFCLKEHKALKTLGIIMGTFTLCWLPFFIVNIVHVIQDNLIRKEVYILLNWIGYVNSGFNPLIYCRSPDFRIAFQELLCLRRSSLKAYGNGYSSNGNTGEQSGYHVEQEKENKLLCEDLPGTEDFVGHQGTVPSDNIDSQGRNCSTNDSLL
Description for MAO-A: MAO-A and test compounds were preincubated at 37° C. for 15 minutes before substrate addition. Test compounds were assayed at 10 concentrations with the highest concentration either 30 or 10 μM and subsequent concentrations using a 0.33 dilution factor. The reaction was initiated by addition of kynuramine and incubated at 37° C. for 30 minutes. The reaction was terminated by addition of NaOH. The amount of 4-hydroquioline formed was determined through spectrofluorimetric readout with the emission detection at 380 nm and excitation wavelength 310 nm.

By IC50 is commonly meant the concentration that inhibits the measured activity by half. One may read the EC50 as the concentration at which the effect is half-maximal. Take `CN[C@H](C)Cc1ccc2ccoc2c1` [Compound R-6-MAPB, (R)-1-(benzofuran-6-yl)-N-methylpropan-2-amine]: the IC50 in experiment [1] is 7.41 µM; against MAO-A, 2.12 µM; against adrenergic β2 receptor, 4.06 µM; at 5-HT2B, 0.4 µM. The concentration for a half-maximal effect (EC50) at 5-HT2A receptors was found to be 4.62 µM; in experiment [2] it was 112 ± 17.5 nM.
